Source: patent US20100204276A1, “INDOLE COMPOUNDS, A PROCESS FOR THEIR PREPARATION AND PHARMACEUTICAL COMPOSITIONS CONTAINING THEM” (LES LABORATOIRES SERVIER, priority 2006, published 2010)

Columns and labels:
MT2 receptor = biological target: T1, MT2 receptor (Homo sapiens, UniProt P49286); assay: Melatonin MT2 receptor binding study (2-[125I]-iodomelatonin competition); settings: 2-[125I]-iodomelatonin as radioligand, triplicate
T1 sequence (P49286 1-362): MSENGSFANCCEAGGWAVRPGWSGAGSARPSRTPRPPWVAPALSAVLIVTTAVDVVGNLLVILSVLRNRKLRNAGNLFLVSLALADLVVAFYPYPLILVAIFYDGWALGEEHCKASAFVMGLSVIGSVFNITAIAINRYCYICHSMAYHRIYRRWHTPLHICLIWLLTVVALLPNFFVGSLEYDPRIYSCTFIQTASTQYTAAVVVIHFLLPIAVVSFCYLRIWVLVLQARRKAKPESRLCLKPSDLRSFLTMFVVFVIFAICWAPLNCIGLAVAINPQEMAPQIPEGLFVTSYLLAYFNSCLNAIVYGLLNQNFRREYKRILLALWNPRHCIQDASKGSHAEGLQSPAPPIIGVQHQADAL
Procedure: (§1) The MT1 or MT2 receptor binding experiments are carried out using 2-[^125I]-iodomelatonin as reference radioligand. The radioactivity retained is determined using a liquid scintillation counter.
(§2) Competitive binding experiments are then carried out in triplicate using the various test compounds. A range of different concentrations is tested for each compound. The results enable the binding affinities (Ki) of the compounds tested to be determined.

MT1 receptor = MT1 receptor (Homo sapiens, UniProt P48039); assay: Melatonin MT1 receptor binding study (2-[125I]-iodomelatonin competition); settings: 2-[125I]-iodomelatonin as radioligand, triplicate
Sequence of MT1 receptor (P48039 whole entry): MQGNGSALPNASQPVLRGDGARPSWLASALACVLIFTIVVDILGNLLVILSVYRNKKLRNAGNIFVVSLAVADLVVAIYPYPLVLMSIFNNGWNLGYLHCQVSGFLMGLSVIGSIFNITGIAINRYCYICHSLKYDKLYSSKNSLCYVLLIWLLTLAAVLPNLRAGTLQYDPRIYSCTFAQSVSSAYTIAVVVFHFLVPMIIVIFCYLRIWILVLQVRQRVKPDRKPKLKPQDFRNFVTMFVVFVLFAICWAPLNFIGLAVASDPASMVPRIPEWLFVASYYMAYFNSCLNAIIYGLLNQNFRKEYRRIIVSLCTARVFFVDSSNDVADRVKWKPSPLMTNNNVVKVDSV
Procedure: as §1, §2

Ki (MT2 receptor): 19 nM | Ki (MT1 receptor): 11 nM | melting point: 113 to 114 °C
SMILES: CCCC(=O)NCCc1c[nH]c2ccc(OCCN3CCCCC3)cc12 [Example 3, N-(2-{5-[2-(1-piperidinyl)ethoxy]-1H-indol-3-yl}ethyl)butanamide]
